Positions count from the first letter of the chain named.

Experiment [1] addresses T1, KIF5B-RET mutant form G810S in HEK293 cells (Homo sapiens, UniProt P07949, G810S).
T1 construct: expressed in transfected cells; host or cells: HEK293; the other entry of the earlier key: KIF5B (P33176, Kinesin-1 heavy chain)
T1 sequence (P07949 713-1063 G810S limits assumed): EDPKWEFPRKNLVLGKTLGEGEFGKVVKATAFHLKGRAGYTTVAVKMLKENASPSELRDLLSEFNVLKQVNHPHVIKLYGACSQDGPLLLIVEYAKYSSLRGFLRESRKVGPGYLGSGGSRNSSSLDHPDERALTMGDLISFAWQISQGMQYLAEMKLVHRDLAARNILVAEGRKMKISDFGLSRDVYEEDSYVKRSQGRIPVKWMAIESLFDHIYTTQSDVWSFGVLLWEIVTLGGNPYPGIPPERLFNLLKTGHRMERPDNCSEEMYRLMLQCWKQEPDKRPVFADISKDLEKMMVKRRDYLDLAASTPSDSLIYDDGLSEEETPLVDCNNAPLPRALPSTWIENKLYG
Description: RET cell assay (In-Cell Western, phospho-RET Y1062), G810S. Conditions: HEK293, doxycycline-induced KIF5B-RET G810S, 1 hr compound treatment; read-out: EC50, inhibition of intracellular autophosphorylation of RET at tyrosine 1062, G810S cells. Format: cell-based. How it is done:
(§1) Compounds of formulas (I), (II), and (III) are screened for their ability to inhibit the intracellular autophosphorylation of RET at tyrosine 1062 as detected by In-Cell Western. HEK293 cells containing a doxycycline-inducible plasmid for inducible expression of KIF5B-RET WT and RET mutant forms V804M and G810S are seeded at 25,000 cells/well into black poly-D-lysine pre-coated 384-well plates (Corning, Catalog No. 356697). Expression of KIF5B-RET is induced with doxycycline at 1 μg/mL and cells are incubated at 37° C. overnight. Compounds are prepared in a threefold serial dilution in DMSO before further diluting 1:100 in media prior to the addition to the cells (0.1% final DMSO concentration). Compound treatment is performed for 1 hr at 37° C. followed by fixation of cells with 4% formaldehyde for 20 min at RT and cell permeabilisation with ice-cold MeOH for 10 min at RT. Cells are incubated with Intercept® blocking buffer (Li—COR, Catalogue No. 927-70010) for 1 hr at RT. Incubation with primary antibodies against human phospho-RET (Y1062) (R&D, Catalogue No. AF5009, 1/250 dilution) and human glyceraldehyde-3-phosphate dehydrogenase (clone 6C5, Merck, Catalog No. MAB374, 1/1000 dilution) are performed overnight at 4° C. Incubation with secondary antibodies IRDye® 800CW goat anti-rabbit IgG (Li—COR, Catalogue No. 926-32211, 1/1000 dilution) and IRDye® 680CW goat anti-mouse IgG (Li—COR, Catalogue No. 926-68070, 1/1000 dilution) are performed for 1 hr at RT. All antibody dilutions are done in Intercept® blocking buffer containing 0.05% Tween20. After washing cells with PBS-T (Cell Signaling technology, Catalogue No. 9809), the images are acquired on a Li—COR Odyssey LCx at 700 and 800 nm. Percent of DMSO control is calculated with 100% signal referring to control conditions containing no compound (0.4% DMSO only) and 0% signal represented by conditions containing control compound. The % of DMSO control values are fit to a 4 parameter logistic curve, and the determined EC50 value is defined as the estimated concentration of inhibitor at the inflexion point of the fitted curve.

The target of experiment [2] is T2, KIF5B-RET mutant form V804M in HEK293 cells (Homo sapiens, UniProt P07949, V804M).
T2 construct: expressed in transfected cells; host or cells: HEK293; the other entry of the earlier key: KIF5B (P33176, Kinesin-1 heavy chain)
T2 sequence (P07949 713-1063 V804M limits assumed): T1 sequence (P07949 713-1063 G810S limits assumed) with V92M, S98G
Description: RET cell assay (In-Cell Western, phospho-RET Y1062), V804M. It counts as cell-based. Conditions: HEK293, doxycycline-induced KIF5B-RET V804M, 1 hr compound treatment; read-out: EC50, inhibition of intracellular autophosphorylation of RET at tyrosine 1062, V804M cells. The method, then: as §1

Broadly, the EC50 is the concentration that produces a half-maximal response. Turning to `CC(C(=O)Nc1cc(C(C)(C)C(F)(F)F)no1)c1ccc(-c2nn(C(C)C)c(N)c2C(N)=O)cn1` (single isomer, unassigned; isomer 2) [Example 90, 5-Amino-1-isopropyl-3-[6-[1-methyl-2-oxo-2-[[3-(2,2,2-trifluoro-1,1-dimethyl-ethyl)isoxazol-5-yl]amino]ethyl]-3-pyridyl]pyrazole-4-carboxamide, Isomer 2], the concentration for a half-maximal effect (EC50) in experiment [1] and in experiment [2] was < 100 nM in each case.
With `CC(C(=O)Nc1cc(-c2ccc(Cl)cc2Cl)no1)c1ccc(-c2nn(C(C)C)c(N)c2C(N)=O)cn1` (single isomer, unassigned; isomer 2) [Example 94, 5-Amino-1-isopropyl-3-[6-[2-[[3-(2,4-dichlorophenyl)isoxazol-5-yl]amino]-1-methyl-2-oxo-ethyl]-3-pyridyl]pyrazole-4-carboxamide, Isomer 2], the concentration giving a half-maximal response (EC50) in experiment [1] and in experiment [2] was < 100 nM throughout.
